Values joined by “and” are separate entries in the source; they are usually repeats but may differ in a detail not shown here. Identical values can stand only once.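 Grown in 96-well plates, cells were treated for 48 hours with each compound at five concentrations. Insufficient inhibition: endpoint recorded as highest concentration tested. Abbreviation: GI50, concentration required for 50% inhibition of growth. Definition used: TGI = concentration required for complete inhibition of growth.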
Columns and labels:
Assay in all cases: NCI-60 cell line screen, 48 h
[1] = system: HCC-2998 colon
[2] = system: HCT-116 colon
[3] = system: M14 melanoma
[4] = system: SR leukemia
[5] = system: HT29 colon
[6] = system: HOP-62 NSCLC

## COc1c(O)ccc2c1CN1CCc3cc4c(cc3C1C2)OCO4 (stereo not drawn)
[1]
  TGI: > 100 µM
[2]
  TGI: > 100 µM
[3]
  TGI: > 100 µM
[4]
  TGI: > 100 µM
[5]
  TGI: > 100 µM
[6]
  TGI: > 100 µM

## COc1ccc(-c2cn[nH]c2-c2cc(OC)c(OC)c(OC)c2)cc1N
[1]
  GI50: < 0.01 µM and 0.0317 µM
  TGI: 93.6 µM and 32.1 µM
[2]
  GI50: < 0.01 µM and 0.0344 µM
  TGI: > 100 µM
[3]
  GI50: < 0.01 µM and 0.0247 µM
  TGI: > 100 µM
[4]
  GI50: < 0.01 µM
  TGI: > 100 µM
[5]
  GI50: < 0.01 µM and 0.0339 µM
  TGI: > 100 µM
[6]
  GI50: < 0.01 µM and 0.0766 µM
  TGI: > 100 µM

## CC(C)(O)C1OCC(C2CCC3(C)C4=CCC5C(C)(C)C(O)CCC5(C)C4CCC23C)CC1O (stereo not drawn)
[1]
  TGI: 30.1 µM
[2]
  TGI: 27.6 µM
[3]
  TGI: > 100 µM
[5]
  TGI: 25.7 µM

## O=C1CCC2(C=C(Br)C(=O)C(Br)=C2)O1
[1]
  GI50: 18.7 µM
  TGI: 33.5 µM
[2]
  GI50: 1.69 µM
  TGI: 3.12 µM
[3]
  GI50: 11.8 µM
  TGI: 24.7 µM
[4]
  GI50: 2.59 µM
  TGI: 9.69 µM
[5]
  GI50: 2.89 µM
  TGI: 7.82 µM
[6]
  GI50: 20.8 µM
  TGI: 39.8 µM

## CC(NNC(=S)N1CCCCCC1)c1ccc2ccccc2n1 (stereo not drawn)
[1]
  GI50: 3.35 µM
  TGI: 22.6 µM
[2]
  GI50: 0.688 µM
  TGI: 17.8 µM
[3]
  GI50: 1.85 µM
  TGI: 11.7 µM
[4]
  GI50: 0.759 µM
  TGI: > 48.9 µM
[5]
  GI50: 2.54 µM
  TGI: 31.1 µM
[6]
  GI50: 3.93 µM
  TGI: > 100 µM

## OCCCCC#Cc1ccccc1C#Cc1ccccc1C(F)(F)F
[1]
  GI50: 3.64 µM
  TGI: 13.9 µM
[2]
  GI50: 6.46 µM
  TGI: 21.3 µM
[4]
  GI50: 0.475 µM
  TGI: 2.97 µM
[5]
  GI50: 4.01 µM
  TGI: 16.5 µM
[6]
  GI50: 8.46 µM
  TGI: > 100 µM

## C/C=C(\C)C(=O)O[C@H]1C=CC(=O)O[C@H]1CNC(=O)[C@H](C)O
[1]
  GI50: 17.7 µM
  TGI: 33.7 µM
[2]
  GI50: 13.1 µM
  TGI: 26 µM
[3]
  GI50: 18.6 µM
  TGI: 41 µM
[5]
  GI50: 18.9 µM
  TGI: 42.6 µM
[6]
  GI50: 23.9 µM
  TGI: 54 µM

## Cc1ccc2c(N)c(C(=O)N[C@H]3CCc4cc(N5CC6CCC(C5)N6)ccc4C3)sc2n1
[1]
  GI50: 0.342 µM
  TGI: 2.08 µM
[2]
  GI50: 0.251 µM
  TGI: 3.44 µM
[3]
  GI50: 0.307 µM
  TGI: 1.82 µM
[4]
  GI50: 0.202 µM
  TGI: 4.36 µM
[5]
  GI50: 0.257 µM
  TGI: 3.22 µM
[6]
  GI50: 0.291 µM
  TGI: 2.36 µM

## O=C(Nc1ccc(Cl)cc1)c1cc2ccccc2cc1O
[1]
  GI50: 2.55 µM
  TGI: 7.65 µM
[2]
  GI50: 2.19 µM
  TGI: 16.5 µM
[4]
  GI50: 3.93 µM
  TGI: > 100 µM
[5]
  GI50: 4.09 µM
  TGI: > 100 µM
[6]
  GI50: 3.34 µM
  TGI: > 100 µM

## O=C(NOCC1CC1)c1ccc(F)c(F)c1Nc1ccc(I)cc1Cl
[1]
  GI50: 0.178 µM
  TGI: 2.69 µM
[2]
  GI50: 0.641 µM
  TGI: 9.06 µM
[3]
  GI50: 0.0546 µM
  TGI: 0.505 µM
[4]
  GI50: 3.04 µM
  TGI: 12.1 µM
[5]
  GI50: 0.112 µM
  TGI: 11.1 µM
[6]
  GI50: 2.04 µM
  TGI: > 100 µM

## Cn1c(=O)c2[nH]c(CS(=O)(=O)Cc3nc4c([nH]3)c(=O)n(C)c(=O)n4C)nc2n(C)c1=O
[2]
  TGI: > 100 µM
[3]
  TGI: > 100 µM
[4]
  TGI: > 100 µM
[5]
  TGI: > 100 µM
[6]
  TGI: > 100 µM

## COC(=O)C(Nc1ccc(OC)cc1)c1ccccc1 (stereo not drawn)
[2]
  TGI: > 100 µM
[3]
  TGI: > 100 µM
[4]
  TGI: > 100 µM
[5]
  TGI: > 100 µM
[6]
  TGI: > 100 µM

## Nc1ccccc1C#C/C=C\C#Cc1ccc(Cl)cc1Cl
[1]
  GI50: 3.37 µM
  TGI: 9.58 µM
[2]
  GI50: 12 µM
  TGI: 24.9 µM
[3]
  GI50: 14.7 µM
  TGI: 34.4 µM
[5]
  GI50: 15.1 µM
  TGI: > 100 µM
[6]
  GI50: 16.6 µM
  TGI: 32.8 µM

## Cc1[nH]c(/C=C2\C(=O)Nc3ccc(F)cc32)c(C)c1C(=O)NC[C@H](O)CN1CCOCC1
[1]
  GI50: 5.17 µM
  TGI: > 10 µM
[2]
  GI50: 2.42 µM
  TGI: > 10 µM
[3]
  GI50: 0.943 µM
  TGI: > 10 µM
[4]
  GI50: 3.41 µM
  TGI: > 10 µM
[5]
  GI50: 2.91 µM
  TGI: > 10 µM
[6]
  GI50: 4.41 µM
  TGI: > 10 µM

## CCN(CC)CCOc1ccc(/C=C2\CC3C4CC=C5C[C@@H](N6CCCC6)CC[C@]5(C)C4CC[C@]3(C)[C@H]2O)cc1OC (stereo partly drawn)
[1]
  GI50: 1.71 µM
  TGI: 4.79 µM
[2]
  GI50: 1.38 µM
  TGI: 11 µM
[3]
  GI50: 1.92 µM
  TGI: 4.23 µM
[4]
  GI50: 0.224 µM
  TGI: 0.648 µM
[5]
  GI50: 2.39 µM
  TGI: > 100 µM
[6]
  GI50: 5.82 µM
  TGI: 15.3 µM

## O=[N+]([O-])/C=C/c1c[nH]c2ccccc12
[1]
  GI50: 4.35 µM
  TGI: 12.5 µM
[2]
  GI50: 3.32 µM
  TGI: 11.3 µM
[3]
  GI50: 2.35 µM
  TGI: 6.43 µM
[4]
  GI50: 2.92 µM
  TGI: 7.18 µM
[5]
  GI50: 19.5 µM
  TGI: 38.8 µM
[6]
  GI50: 21.4 µM
  TGI: 36.5 µM

## C=C1C(=O)OC2CC3(CO3)C3C(O)C(O)CC3(C)CC12 (stereo not drawn)
[1]
  TGI: 33.9 µM
[2]
  TGI: 38 µM
[3]
  TGI: 36.7 µM
[4]
  TGI: 87.4 µM
[5]
  TGI: > 100 µM
[6]
  TGI: > 100 µM

## COc1ccc(-c2nc(-c3ccccc3)c(-c3ccccc3)n2C2CC2)cc1OC1CCCC1
[2]
  GI50: 14.1 µM
  TGI: > 165 µM
[3]
  GI50: 163 µM
  TGI: > 165 µM
[4]
  GI50: 7.92 µM
  TGI: 59.4 µM
[5]
  GI50: 85.1 µM
  TGI: > 165 µM
[6]
  GI50: > 165 µM
  TGI: > 165 µM

## O=c1cc(-c2ccccc2)nc2n1CCN2Cc1ccccc1
[2]
  GI50: 31.6 µM
  TGI: > 100 µM
[3]
  GI50: 37.9 µM
  TGI: > 100 µM
[5]
  GI50: 58.1 µM
  TGI: > 100 µM
[6]
  GI50: 63.8 µM
  TGI: > 100 µM

## COc1cc(/C=C/C(=O)c2ccc(Cl)cc2)ccc1OS(=O)(=O)c1ccc(C)cc1
[1]
  GI50: 12.4 µM
  TGI: 26.7 µM
[2]
  GI50: 1.76 µM
  TGI: 3.71 µM
[3]
  GI50: 6.35 µM
  TGI: 23.6 µM
[4]
  GI50: 1.9 µM
  TGI: 6.56 µM
[5]
  GI50: 2.15 µM
  TGI: 4.73 µM
[6]
  GI50: 30 µM
  TGI: 92 µM

## O=C(Nc1ncc(Cc2ccccc2Cl)s1)c1ccc2c(c1)OCCO2
[1]
  GI50: 0.468 µM
  TGI: > 55.5 µM
[2]
  GI50: 0.335 µM
  TGI: > 100 µM
[3]
  GI50: 0.246 µM
  TGI: 14.5 µM
[4]
  GI50: 0.206 µM
  TGI: > 100 µM
[5]
  GI50: 0.616 µM
  TGI: > 48.5 µM
[6]
  GI50: 0.592 µM
  TGI: > 82.9 µM

## CC(=O)OC(C)(C)/C=C/C(=O)[C@](C)(O)[C@H]1[C@H](O)C[C@@]2(C)[C@@H]3CC=C4[C@@H](C[C@H](O)C(=O)C4(C)C)[C@]3(C)C(=O)C[C@]12C
[1]
  TGI: 4.45 µM
[2]
  TGI: 1.22 µM
[3]
  TGI: < 0.01 µM
[4]
  TGI: 1.21 µM
